# Test results reported in ChEMBL document CHEMBL1201862, “PubChem BioAssay data set” (2004).
#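 Cells were grown in 96-well plates and exposed to each compound for 48 hours at five concentrations; endpoints were interpolated linearly between bracketing concentrations, or set to the highest concentration if not reached. The concentration for 50% growth inhibition is given as GI50.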 Calls of active or inactive are those of the source. No stated cut-off is given here; in the data, active = GI50 up to about 1.1 µM and inactive = higher.
# Assays:
# Experiment in all cases: NCI-60 cell line screen, 48 h
# SR = system: SR
# HCC 2998 = system: HCC 2998
# OVCAR-3 = system: OVCAR-3
# SK-MEL-2 = system: SK-MEL-2
# OVCAR-4 = system: OVCAR-4
# T47D = system: T47D
# RXF 393 = system: RXF 393
# ACHN = system: ACHN
# MDA-MB-435 = system: MDA-MB-435
# MCF7 = system: MCF7
# UACC-62 = system: UACC-62
# Malme-3M = system: Malme-3M
# NCI-H226 = system: NCI-H226
# SF-539 = system: SF-539
# NCI-H522 = system: NCI-H522
# SF-295 = system: SF-295
# SK-MEL-28 = system: SK-MEL-28
# HL-60 = system: HL-60
# HOP-62 = system: HOP-62
# U-251 = system: U-251
SMILES,GI50 (SR),GI50 (HCC 2998),GI50 (OVCAR-3),GI50 (SK-MEL-2),GI50 (OVCAR-4),GI50 (T47D),GI50 (RXF 393),GI50 (ACHN),GI50 (MDA-MB-435),GI50 (MCF7),GI50 (UACC-62),GI50 (Malme-3M),GI50 (NCI-H226),GI50 (SF-539),GI50 (NCI-H522),GI50 (SF-295),GI50 (SK-MEL-28),GI50 (HL-60),GI50 (HOP-62),GI50 (U-251)
NC(=O)C(Nc1c(Cl)cccc1Cl)c1cc2cc(Br)ccc2nc1Cl (stereo not given),12.2 µM (inactive),44.8 µM (inactive),52.8 µM (inactive),29.6 µM (inactive),46.3 µM (inactive),44.4 µM (inactive),41.7 µM (inactive),80.9 µM (inactive),19.5 µM (inactive),30.1 µM (inactive),44.1 µM (inactive),> 100 µM (inactive),45.5 µM (inactive),41.7 µM (inactive),25.9 µM (inactive),58.9 µM (inactive),> 100 µM (inactive),28.4 µM (inactive),65.8 µM (inactive),
COC(=O)c1cc(C#N)[nH]c1-c1cc(Br)cs1,24.9 µM (inactive),> 41.7 µM (inactive),4.78 µM (inactive),12.8 µM (inactive),4.54 µM (inactive),2.13 µM (inactive),5.32 µM (inactive),19.6 µM (inactive),13.3 µM (inactive),7.24 µM (inactive),15.8 µM (inactive),10.8 µM (inactive),10.9 µM (inactive),14.3 µM (inactive),2.1 µM (inactive),10 µM (inactive),14.5 µM (inactive),13.2 µM (inactive),11.1 µM (inactive),13.3 µM (inactive)
O=C1Nc2ccccc2/C1=N/Nc1ccc([N+](=O)[O-])cc1,1.46 µM (inactive),70.5 µM (inactive),13.6 µM (inactive),58.2 µM (inactive),14.4 µM (inactive),7.62 µM (inactive),15 µM (inactive),13.5 µM (inactive),40.3 µM (inactive),37.8 µM (inactive),28.8 µM (inactive),17.4 µM (inactive),19.1 µM (inactive),3.83 µM (inactive),11.1 µM (inactive),16.9 µM (inactive),41.3 µM (inactive),15.1 µM (inactive),14.6 µM (inactive),30.3 µM (inactive)
C1COC(NC(C2CC2)C2CC2)=N1 [RILMENIDINE],> 100 µM (inactive),> 100 µM (inactive),> 100 µM (inactive),> 100 µM (inactive),> 100 µM (inactive),> 100 µM (inactive),> 100 µM (inactive),> 100 µM (inactive),> 100 µM (inactive),> 100 µM (inactive),> 100 µM (inactive),> 100 µM (inactive),> 100 µM (inactive),> 100 µM (inactive),> 100 µM (inactive),> 100 µM (inactive),> 100 µM (inactive),> 100 µM (inactive),,> 100 µM (inactive)
CC(=O)NNc1nc(C)c(C(/C=C/c2ccc(NC(C)=O)cc2)=N/NS(=O)(=O)c2ccc(C)cc2)s1,> 100 µM (inactive),> 100 µM (inactive),> 100 µM (inactive),> 100 µM (inactive),> 100 µM (inactive),> 100 µM (inactive),> 100 µM (inactive),> 100 µM (inactive),> 100 µM (inactive),> 100 µM (inactive),> 100 µM (inactive),> 100 µM (inactive),> 100 µM (inactive),> 100 µM (inactive),> 100 µM (inactive),27.9 µM (inactive),> 100 µM (inactive),> 100 µM (inactive),> 100 µM (inactive),> 100 µM (inactive)
COc1ccc2c(NCCCCCCNc3c4ccccc4nc4cc(OC)ccc34)c3ccccc3nc2c1,0.0185 µM (active),0.135 µM (active),0.162 µM (active),0.364 µM (active),0.103 µM (active),0.421 µM (active),0.0834 µM (active),0.163 µM (active),0.254 µM (active),0.0475 µM (active),0.263 µM (active),0.427 µM (active),0.212 µM (active),0.0929 µM (active),0.0624 µM (active),0.286 µM (active),0.342 µM (active),0.0923 µM (active),0.137 µM (active),0.0728 µM (active)
Oc1ccccc1-c1n[nH]c(-c2ccccc2O)n1,0.807 µM (active),3.9 µM (inactive),0.28 µM (active),> 100 µM (inactive),2.36 µM (inactive),2.21 µM (inactive),2.23 µM (inactive),2.21 µM (inactive),> 100 µM (inactive),0.577 µM (active),7.59 µM (inactive),2.84 µM (inactive),4.38 µM (inactive),4.84 µM (inactive),1.64 µM (inactive),2.52 µM (inactive),> 100 µM (inactive),1.27 µM (inactive),1.77 µM (inactive),3.25 µM (inactive)
Clc1ccc(/C=N/C23CC4CC(CC(C4)C2)C3)cc1Cl,> 10 µM (inactive),> 10 µM (inactive),> 10 µM (inactive),> 10 µM (inactive),> 10 µM (inactive),> 10 µM (inactive),> 10 µM (inactive),> 10 µM (inactive),> 10 µM (inactive),> 10 µM (inactive),> 10 µM (inactive),> 10 µM (inactive),> 10 µM (inactive),> 10 µM (inactive),> 10 µM (inactive),> 10 µM (inactive),> 10 µM (inactive),> 10 µM (inactive),> 10 µM (inactive),> 10 µM (inactive)
O=C1/C(=N/c2ccc(Nc3ccccc3)cc2)Oc2ccccc21,2.15 µM (inactive),8.26 µM (inactive),1.97 µM (inactive),3.3 µM (inactive),2.33 µM (inactive),3 µM (inactive),2.51 µM (inactive),3.18 µM (inactive),1.82 µM (inactive),2.55 µM (inactive),3.28 µM (inactive),2.99 µM (inactive),3.31 µM (inactive),3.27 µM (inactive),1.83 µM (inactive),3.35 µM (inactive),4.19 µM (inactive),1.99 µM (inactive),5.57 µM (inactive),1.69 µM (inactive)
CC(C)(C)OC(=O)N1CCC23CCCC2C(=O)CC=C13 (stereo not given),> 100 µM (inactive),> 100 µM (inactive),> 100 µM (inactive),> 100 µM (inactive),> 100 µM (inactive),> 100 µM (inactive),> 100 µM (inactive),> 100 µM (inactive),> 100 µM (inactive),> 100 µM (inactive),> 100 µM (inactive),> 100 µM (inactive),> 100 µM (inactive),> 100 µM (inactive),66.4 µM (inactive),> 100 µM (inactive),> 100 µM (inactive),> 100 µM (inactive),> 100 µM (inactive),> 100 µM (inactive)
CC1=NOC(=O)/C1=C/c1ccc2c(c1)OCO2,15.9 µM (inactive),28.9 µM (inactive),30.2 µM (inactive),19.6 µM (inactive),63.1 µM (inactive),> 100 µM (inactive),16 µM (inactive),19.1 µM (inactive),23.4 µM (inactive),30.2 µM (inactive),21.5 µM (inactive),43.6 µM (inactive),21.6 µM (inactive),24.3 µM (inactive),38.5 µM (inactive),26.7 µM (inactive),30.8 µM (inactive),,19.2 µM (inactive),18.7 µM (inactive)
CC(C)(C)OC(=O)N1C(C2=COc3ccccc3O2)=COc2cccnc21,2.18 µM (inactive),1.69 µM (inactive),1.72 µM (inactive),1.94 µM (inactive),1.6 µM (inactive),1.42 µM (inactive),1.62 µM (inactive),1.65 µM (inactive),1.74 µM (inactive),1.66 µM (inactive),1.58 µM (inactive),1.45 µM (inactive),1.71 µM (inactive),2 µM (inactive),1.61 µM (inactive),1.95 µM (inactive),1.74 µM (inactive),1.8 µM (inactive),1.85 µM (inactive),1.73 µM (inactive)
O=C1C(Cl)=C(N2CCN(C3=C(Cl)C(=O)c4ccccc4C3=O)CC2)C(=O)c2ccccc21,0.179 µM (active),2.78 µM (inactive),1.6 µM (inactive),1.74 µM (inactive),1.58 µM (inactive),0.729 µM (active),1.63 µM (inactive),1.64 µM (inactive),1.86 µM (inactive),1.72 µM (inactive),1.79 µM (inactive),1.91 µM (inactive),4.25 µM (inactive),1.73 µM (inactive),0.652 µM (active),7.62 µM (inactive),1.94 µM (inactive),0.0841 µM (active),12.4 µM (inactive),3.13 µM (inactive)
C/C=C/OC1C(C2COC(C)(C)O2)OC2OC(C)(C)OC21 (stereo not given),> 100 µM (inactive),> 100 µM (inactive),> 100 µM (inactive),> 100 µM (inactive),> 100 µM (inactive),> 100 µM (inactive),> 100 µM (inactive),> 100 µM (inactive),> 100 µM (inactive),> 100 µM (inactive),,> 100 µM (inactive),,> 100 µM (inactive),> 100 µM (inactive),> 100 µM (inactive),> 100 µM (inactive),> 100 µM (inactive),> 100 µM (inactive),> 100 µM (inactive)
